Laboratory results: article PMC6274398, “Three Novel Triterpenoids from Taraxacum officinale Roots” (Molecules, 2016)
Like-named read-outs stand apart in the source and are kept apart here.

Columns and labels:
[1] = tested on: NO production in RAW 264.7 mouse macrophages stimulated by lipopolysaccharide (LPS); assay: Inhibitory assay of NO production (Griess) in LPS-stimulated RAW264.7 cells; type: cell-based; conditions: for IC50 / activity at 1 µM / activity at 3 µM / activity at 10 µM / activity at 30 µM: Mus musculus; for IC50: read-out: IC50 (inhibition of NO production); for activity at 1 µM / activity at 3 µM / activity at 10 µM / activity at 30 µM: read-out: Produced NO %
Method: An inhibitory assay of NO production was examined in accordance with a previously reported method with minor modifications. Briefly, RAW264.7 cells (5 × 10^4 cells in 100 μL) were seeded on a 96-well microplate and incubated for 24 h. DMEM-containing test samples (100 μL total volume, final concentration of 30, 10, 3, or 1 μM) dissolved in DMSO (final concentration 0.2%) and LPS (final concentration of 5 μg/mL) was added. After being treated for 24 h, the supernatant of the culture medium was transferred to another 96-well microplate, and 50 μL of 0.15% N-(1-naphtyl)ethylenediamine in H2O and 1.5% sulfanilamide in 7.5% phosphoric acid were then added. After being incubated for 30 min, absorbance in each well was read at 570 nm using a microplate reader. The optical density of vehicle control cells was assumed to be 100%

[2] = tested on: RAW264.7 cells; assay: RAW264.7 cell proliferation / cell viability (MTT); type: cell-based, mouse; conditions: for Cell Viavility %: 24 h, MTT, vs DMSO (100%), mean ± S.E., n=4
Method: RAW264.7 cell proliferation was examined in accordance with a previously reported method. Briefly, RAW264.7 cells (5 × 10^4 cells in 100 μL) were seeded on a 96-well microplate and incubated for 24 h. Dulbecco's modified eagle's medium (DMEM)-containing test samples (100 μL total volume, final concentration of 30, 10, 3, or 1 μM) dissolved in dimethyl sulfoxide (DMSO, final concentration 0.2%) was added. After being treated for 24 h, thiazolyl blue tetrazolium bromide (MTT) solution was added. After a 3-h incubation, 20% sodium dodecyl sulfate in 0.1 M HCl was added to dissolve the formazan produced in the cells. Absorbance in each well was read at 570 nm using a microplate reader. The optical density of vehicle control cells was assumed to be 100%.

Compound | IC50 ([1]; RAW264.7, 24 h) [µM] | activity at 1 µM ([1]; RAW264.7, 24 h) [%] | activity at 3 µM ([1]; RAW264.7, 24 h) [%] | activity at 10 µM ([1]; RAW264.7, 24 h) [%] | activity at 30 µM ([1]; RAW264.7, 24 h) [%] | Cell Viavility % ([2]; 1 μM) | Cell Viavility % ([2]; 3 μM) | Cell Viavility % ([2]; 10 μM) | Cell Viavility % ([2]; 30 μM) | activity at 1 µM ([1]; RAW264.7, 1 μM, LPS 5 μg/mL, 24 h, vs DMSO (100%), mean ± S.E., n=4) [%] | activity at 3 µM ([1]; RAW264.7, 3 μM, LPS 5 μg/mL, 24 h, vs DMSO (100%), mean ± S.E., n=4) [%] | activity at 10 µM ([1]; RAW264.7, 10 μM, LPS 5 μg/mL, 24 h, vs DMSO (100%), mean ± S.E., n=4) [%] | activity at 30 µM ([1]; RAW264.7, 30 μM, LPS 5 μg/mL, 24 h, vs DMSO (100%), mean ± S.E., n=4) [%] | IC50 ([1]; LPS-stimulated RAW264.7, 24 h) [µM] | melting point [°C] | NO inhibitory activity (in words) ([1]; 1–30 μM tested) | Cytotoxicity at effective concentration (in words) ([2]; at 1–10 μM) | Cytotoxicity (in words) ([2]; at higher concentrations)
CO[C@H]1C[C@]2(C)CC[C@]3(C)[C@H](CC[C@@H]4[C@@]5(C)CC[C@H](OC(C)=O)C(C)(C)[C@@H]5CC[C@]43C)[C@@]23O[C@@]13C(C)C [Compound 1, 18β,19β-epoxy-21β-methoxylupan-3β-yl acetate] | > 30 | 94.8 ± 1.2 | 101.4 ± 0.7 | 90.5 ± 2.4 | 95.7 ± 4.6 | (95.0 ± 0.7) % | (104.2 ± 1.3) % | (102.6 ± 0.7) % | (107.4 ± 2.0) % |  |  |  |  |  |  |  |  | 
CC(=O)O[C@H]1CC[C@]2(C)[C@H]3CC[C@@]4(C)[C@@H]5[C@@H](C)[C@H](C)CC[C@]5(C)CC[C@]4(C)C3=CC(=O)[C@H]2C1(C)C [Compound 2, 3β-acetoxybauer-7-en-6-one] |  |  |  |  |  | (100.0 ± 1.3) % | (102.2 ± 0.3) % | (105.1 ± 0.3) % | (105.7 ± 2.0) % | 95.6 ± 2.7 | 101 ± 2.6 | 86.5 ± 1.4 | 71.4 ± 1.8 | > 30 | 110 to 112 |  |  | 
CC(=O)O[C@H]1CC[C@]2(C)[C@H]3CC[C@@]4(C)[C@H]([C@H](C)CCC=C(C)C)CC[C@]4(C)C3=CC(=O)[C@H]2C1(C)C [Compound 3, 3β-acetoxyeupha-7,24-dien-6-one] | > 30 | 101 ± 2.6 | 93.7 ± 1.4 | 93.3 ± 1.6 | 93.1 ± 0.9 | (100.0 ± 1.4) % | (94.6 ± 8.2) % | (104.2 ± 0.7) % | (103.8 ± 1.0) % |  |  |  |  |  | 140 to 143 |  |  | 
CC(=O)O[C@H]1CC[C@]2(C)[C@H]3CC[C@@H]4[C@@]56O[C@]5(C(C)C)[C@@H](O)C[C@]6(C)CC[C@@]4(C)[C@]3(C)CC[C@H]2C1(C)C [Compound 4, 18β,19β-epoxy-21β-hydroxylupan-3β-yl acetate] | 16.9 | 83.6 ± 0.9 | 76.8 ± 2.5 | 66 ± 0.8 | 35.4 ± 2.2 | (98.4 ± 0.9) % | (97.9 ± 0.3) % | (92.7 ± 1.0) % | (49.5 ± 0.7) % |  |  |  |  |  |  | exhibited NO inhibitory activities | did not exhibit cytotoxicity | some cytotoxicity
CC(=O)O[C@H]1CC[C@]2(C)[C@H]3CC[C@@H]4C5=C(C(C)C)C(=O)C[C@]5(C)CC[C@@]4(C)[C@]3(C)CC[C@H]2C1(C)C [Compound 5, 21-oxolup-18-en-3β-yl acetate] | > 30 | 110 ± 5.2 | 106 ± 3.2 | 94.9 ± 4.3 | 92.7 ± 4.7 | (98.4 ± 3.1) % | (94.8 ± 3.9) % | (90.7 ± 1.8) % | (88.9 ± 2.3) % |  |  |  |  |  |  |  |  | 
